Test results as given in patent US7678390B2, “Carbon monoxide as a biomarker and therapeutic agent” (priority 1999, dated 2010).
Marks after values point to notes of the source that are not given here.

Key:
RAW 264.7 macrophages [1] = experiment: LPS-induced cytokine production in macrophages (ELISA, Western); assay type: cell-based, mouse; details: for TNF-α: RAW 264.7 macrophages
From the text: Animals. Male C57BL/6 and IL-10 (−/−) mice were purchased from Jackson Laboratory (Bar Harbor, Me.), and allowed to acclimate for one week with rodent chow and water ad libitum. The MKK (−/−) mice were generated as previously described [Lu, et al., EMBO J. 18:1845-1857 (1999)]. Wild type littermates were used as controls. All animals were housed in accordance with guidelines from the American Association for Laboratory Animal Care and Research Protocols and were approved by the Animal Care and Use Committee of Yale University School of Medicine. Reagents. All reagents were purchased from Sigma Chemical Co. (St Louis, Mo.) unless specified otherwise. Plasmid Construct. Plasmid pSFFV/HO-1 was constructed by insertion of the rat HO-1 cDNA [Shibahara, et al., Proc. Natl. Acad. Sci. USA. 82: 7865-7869 (1985)] downstream of the Friend spleen focus-forming virus 5′ long-terminal repeat in the mammalian expression vector pSFFV/neo [Fuhlbrigge, et al, Proc. Natl. Acad. Sci. USA. 85: 5649-5653 (1988)] (kindly provided by Stanley Korsmeyer). Transfection. Stable transfections were carried out by the calcium phosphate precipitation technique as previously described [Alam, J., J. Biol. Chem. 269: 25049-25056 (1994)]. Briefly, RAW cells were plated (1×10^6/10 cm plate) and 16 h later, transfected with […] of pSFFV/neo or pSFFV/HO-1. Cells were exposed to the DNA-CaPO4 precipitate for 6 h, shocked by a 1 min treatment with glycerol in phosphate-buffered saline and cultured for an additional 24 h in complete medium before addition of G418. Transfectants were selected over a 3-week period in the presence of G418 (up to […]) and individual clones were isolated by limited dilution. Cell Culture Experimentation. RAW 264.7 mouse peritoneal macrophages were purchased from […] (Rockville, Md.) and primary culture of rat pulmonary vascular smooth muscle cells were harvested from male Sprague Dawley rats (250-300 g) as previously described [Gunther, et al., J. Cell. Biol. 92: 289-298 (1982).]. Both cell types were grown in DMEM containing 10% FBS and gentamicin ([…]) in a humidified atmosphere of 5% CO2/balanced air or 250 ppm CO/5% CO2/balanced air. After a 2 h pretreatment with either CO or air, LPS ([…]) or sterile saline was added to the culture media and the culture plates were returned to the chamber(s). At various time points, cell plates were removed from the chamber to collect media and/or cells for Western analysis. CO Exposures. Mice or macrophages were exposed to compressed air or 250 ppm CO. For cell culture experiments, 5% CO2 was also present for buffering requirements. CO at a concentration of 1% (10,000 ppm) in compressed air was mixed with compressed air with or without CO2 in a stainless steel mixing cylinder before delivery into the exposure chamber. Flow into the 3.70-ft^2 plexiglass animal chamber was maintained at 12 L/min and into the 1.2 ft^2 cell culture chamber at a flow of 2 L/min. The cell culture chamber was humidified and maintained at 37° C. A CO analyzer (Interscan, Chatsworth, Calif.) was used to measure CO levels continuously in the chambers. Gas samples were taken by the analyzer through a port in the top of the chambers at a rate of 1 L/min and analyzed by electrochemical detection, with a sensitivity of 10-600 ppm. Concentration levels were measured hourly and there were no fluctuations in the CO concentrations once the chamber had equilibrated (approximately 5 min). Animal Experimentation. Mice were prebled from the retroorbital sinus (0.25 ml) and then exposed to CO (250 ppm) or room air for 1 h prior to administration of LPS (1 mg/kg, i.p.), E. coli serotype O127:B8. 1 and 16 h thereafter, they were removed from the exposure apparatus individually and a blood sample was obtained via the retroorbital sinus. After the blood collection, the mice were immediately returned to the exposure chamber. […]

RAW 264.7 macrophages [2] = experiment: cGMP radioimmunoassay in macrophages; assay type: cell-based, mouse; details: 2 h
Experimental: (§1) Nitrate/Nitrite Analysis. Both analytes were measured in the cell culture media which had been ultrafiltered to remove all proteins greater than 10,000 molecular weight. All samples were than analyzed according to the assay kit protocols. (R & D, Minneapolis, Minn.). cGMP Radioimmunoassay (RIA) in macrophages. Macrophages or vascular smooth muscle cells were exposed to CO (250 ppm) or air. 20 min before the end of the exposure 1 mM of 3-isobutyl-1-methylxanthine (IBMX) was added to the cells to prevent phosphodiesterase degradation of cGMP. After 2 h of exposure, cells were removed from the exposure chamber, rinsed with PBS and then 0.5 ml of 75% EtOH was added to the plate and cells were scraped and disrupted via sonication for 5 s. Samples were then centrifuged at 2000 g for 10 min. Supernatants were transferred to fresh tubes and evaporated to dryness. cGMP concentration in the cell extracts was determined by radioimmunoassay (NEN, Boston, Mass.) according to manufacturer's instructions. cGMP was normalized to protein concentration as determined by Bradford assay. Statistical Analysis. Data are expressed as the mean±SE. Differences in measured variables between experimental and control group were assessed using Student's t tests. Statistical calculations were performed on a Macintosh personal computer using the Statview II Statistical Package (Abacus Concepts, Berkeley, Calif.). […]

RAW 264.7 cells = experiment: Nitrate/nitrite analysis of cell culture media; assay type: cell-based, mouse; details: 1 h post LPS, presence or absence of CO
Experimental: as §1

ERK1/ERK2 = experiment: LPS-induced MAP kinase activation, Western blot (ERK1/ERK2); assay type: cell-based, mouse; details: RAW 264.7 macrophages, LPS in the presence of CO
From the text: (§2) Animals. Male C57BL/6 and IL-10 (−/−) mice were purchased from Jackson Laboratory (Bar Harbor, Me.), and allowed to acclimate for one week with rodent chow and water ad libitum. The MKK (−/−) mice were generated as previously described [Lu, et al., EMBO J. 18:1845-1857 (1999)]. Wild type littermates were used as controls. All animals were housed in accordance with guidelines from the American Association for Laboratory Animal Care and Research Protocols and were approved by the Animal Care and Use Committee of Yale University School of Medicine. Reagents. All reagents were purchased from Sigma Chemical Co. (St Louis, Mo.) unless specified otherwise. Plasmid Construct. Plasmid pSFFV/HO-1 was constructed by insertion of the rat HO-1 cDNA [Shibahara, et al., Proc. Natl. Acad. Sci. USA. 82: 7865-7869 (1985)] downstream of the Friend spleen focus-forming virus 5′ long-terminal repeat in the mammalian expression vector pSFFV/neo [Fuhlbrigge, et al, Proc. Natl. Acad. Sci. USA. 85: 5649-5653 (1988)] (kindly provided by Stanley Korsmeyer). Transfection. […] Gas samples were taken by the analyzer through a port in the top of the chambers at a rate of 1 L/min and analyzed by electrochemical detection, with a sensitivity of 10-600 ppm. Concentration levels were measured hourly and there were no fluctuations in the CO concentrations once the chamber had equilibrated (approximately 5 min). […]

MKK3(−/−) mice given LPS = experiment: LPS-induced serum cytokines in MKK3(-/-) mice; assay type: in vivo, mouse; details: LPS 1 mg/kg, 250 ppm CO
From the text: as §2

[C-]#[O+] [CO, carbon monoxide]
LPS-induced TNF-α production (ELISA) (RAW 264.7 macrophages [1]; CO 250 ppm): significantly attenuated levels | LPS-induced MIP-2 (RAW 264.7 macrophages [1]; LPS, CO 250 ppm): not affecting | LPS-induced IFN-g (RAW 264.7 macrophages [1]; LPS, CO (data not shown)): not affecting | LPS-induced JE (RAW 264.7 macrophages [1]; LPS, CO (data not shown)): not affecting | LPS-induced KC (RAW 264.7 macrophages [1]; LPS, CO (data not shown)): not affecting | LPS-induced accumulation of IL-10 (RAW 264.7 macrophages [1]; LPS, CO at 250 ppm): significantly augmented | inhibition of TNF-α production in the media by ELISA (RAW 264.7 macrophages [1]; RAW 264.7 cells, LPS in the presence of CO): > 80% | TNF-α (RAW 264.7 macrophages [1]; with LPS): 230 ± 40^b pg/ml | TNF-α (RAW 264.7 macrophages [1]; without LPS): 15 ± 5 pg/mL | TNF-α protein expression by Western blot (RAW 264.7 macrophages [1]; cell lysates and media, LPS in the presence of CO): decreased TNF-α protein expression | increase in cGMP (RAW 264.7 macrophages [2]; 250 ppm CO): no significant increase | cGMP (RAW 264.7 macrophages [2]; CO 250 ppm): 3.95 ± 0.6 pmol/mg protein | nitrate or nitrite levels (RAW 264.7 cells): no increases | LPS-induced ERK1/ERK2 MAP kinase activation (ERK1/ERK2): not affected | LPS-induced TNF-α production (MKK3(−/−) mice given LPS): did not affect | serum IL-10 levels after LPS (MKK3(−/−) mice given LPS): did not exhibit augmented serum IL-10 levels
